Measurements reported in patent US11827917B1, “Methods for the conversion of fermentable sugars to ethanol” (Colorado State University Research Foundation, priority 2020, dated 2023).
Marks after values point to notes of the source that are not given here.

Legend:
Type in all cases: cell-based, Saccharomyces cerevisiae
S. cerevisiae ATCC 26603 = experiment: Serum-bottle cultivation in YPD, different yeast strains; details: 0.2%
Experimental: (§1) Analytical methods: Cell growth was evaluated by monitoring OD600 and cell dry mass concentration. For dry mass measurements, 1.0 mL of culture was transferred to a pre-dried and pre-weighed 2-mL centrifuge tube. The tubes were centrifuged for 10 min at 14000 rpm using a microcentrifuge, and then the cell pellets were dried in an oven for 3 days at 65° C. The cell dry mass was determined by subtracting the initial tube mass from the dried mass of tube with cells. The concentrations of glucose, ethanol, and glycerol were measured via HPLC (Shimadzu LC20A series) outfitted with a refractive index detector and using an Aminex HPX-87H (300×7.8 mm) organic acid column and Cation H+ guard cartridge (Bio Rad Laboratories, Hercules, CA). The column was maintained at 65° C. and the mobile phase was 5 mM sulfuric acid with a flow rate of 0.6 mL/min. Standard compound solutions were used to calibrate the HPLC. Each sample was analyzed three times by HPLC.
(§2) Procedure: Seven yeast strains (S. cerevisiae ATCC 26603, S. cerevisiae JAY 238, S. cerevisiae JAY 240, S. cerevisiae JAY 241, S. paradoxus JAY 1502, S. kudriavzezii JAY 1503, and S. mikatae JAY 1504) were pre-cultured in 30 mL of YPD medium in 100 mL serum bottle overnight in a shaker at 30° C. and 200 rpm. The precultured yeast cells of each strains were collected and washed twice. Finally, the cell pellet was resuspended in about 10 mL 0.8% (w/v) NaCl and the OD600 measured. TyrOH, PheOH, and TrpOH were added to 30 mL of YPD medium in 100-mL serum bottles at 0.2% (w/v) respectively. The same amount of DMSO was added in YPD medium and served as control to the TrpOH and TyrOH treatments. The prepared yeast cells were added to obtain the initial cell concentration at OD600=0.2. The serum bottles were sealed and cultured in a shaker at 30° C. and 200 rpm for 24 h. There were three biological replicates for each treatment.

S. cerevisiae JAY 238 = experiment: as above; details: 0.2%
Experimental: as §1, §2

S. cerevisiae JAY 240 = experiment: as above; details: 0.2%
Experimental: as §1, §2

S. cerevisiae JAY 241 = experiment: as above; details: 0.2%
Experimental: as §1, §2

S. cerevisiae JAY 270 = experiment: Serum-bottle cultivation in YPD: biomass, glycerol, ethanol yields
Experimental: Procedure: Cultivations in serum bottles were used to determine the effect of the best-performing screened chemicals on the ethanol yield. S. cerevisiae JAY 270 was pre-cultured in 100 mL of YPD medium in 200-mL serum bottles overnight in a shaker at 30° C. and 200 rpm. The precultured yeast cells were collected and washed twice as described above. The cell pellet was resuspended in about 10 mL of 0.8% (w/v) NaCl and the cell concentration was estimated as OD600. TyrOH, PheOH, and TrpOH were added to 30 mL of YPD medium in 100-mL serum bottles at 0.05% and 0.2% respectively. The same amount of DMSO was added to YPD medium to serve as the control for TrpOH and TyrOH treatments. The bottles were inoculated with the prepared yeast cells to obtain an initial cell concentration of OD600=0.2. The serum bottles were sealed and cultured in a shaker at 30° C. and 200 rpm for 24 h. Each condition had three biological replicates.
as §1

[1] = S. cerevisiae ATCC 26603, YPD (Table 9B)
[2] = S. cerevisiae JAY 238, YPD (Table 9B)
[3] = S. cerevisiae JAY 240, YPD (Table 9B)
[4] = S. cerevisiae JAY 241, YPD (Table 9B)
[5] = 0.05% (w/v), YPD, serum bottles

Structure (SMILES): OCCc1ccccc1 [PheOH, 2-phenylethanol]
- Biomass Yield (S. cerevisiae ATCC 26603; S. cerevisiae ATCC 26603): 0.052 ± 0.001 g/g
- Biomass yield % change vs. control (S. cerevisiae ATCC 26603; S. cerevisiae ATCC 26603): −22* %
- EtOH yield (S. cerevisiae ATCC 26603; S. cerevisiae ATCC 26603): 0.453 ± 0.006 g/g
- EtOH yield % change vs. control (S. cerevisiae ATCC 26603; S. cerevisiae ATCC 26603): +1.2%
- Glycerol yield (S. cerevisiae ATCC 26603; S. cerevisiae ATCC 26603): 0.054 ± 0.001 g/g
- Glycerol yield % change vs. control (S. cerevisiae ATCC 26603; S. cerevisiae ATCC 26603): −25* %
- DCW (S. cerevisiae ATCC 26603; S. cerevisiae ATCC 26603, YPD): 1.40 mg
- DCW Δ vs. ref (S. cerevisiae ATCC 26603; S. cerevisiae ATCC 26603, YPD): 76.4%
- OD600 (S. cerevisiae ATCC 26603; S. cerevisiae ATCC 26603, YPD): 1.27
- OD600 Δ vs. ref (S. cerevisiae ATCC 26603; S. cerevisiae ATCC 26603, YPD): 85.6%
- Biomass Yield (S. cerevisiae ATCC 26603; [1]): 0.052 + 0.001 g/g
- Biomass yield Δ vs. ref (S. cerevisiae ATCC 26603; [1]): −22.3%
- Ethanol yield (S. cerevisiae ATCC 26603; [1]): 0.453 ± 0.006 g/g
- Ethanol yield Δ vs. ref (S. cerevisiae ATCC 26603; [1]): 1.2%
- Glycerol yield (S. cerevisiae ATCC 26603; [1]): 0.054 ± 0.001 g/g
- Glycerol yield Δ vs. ref (S. cerevisiae ATCC 26603; [1]): −25.07%
- Biomass Yield (S. cerevisiae JAY 238; S. cerevisiae JAY 238): 0.059 ± 0.000 g/g
- Biomass yield % change vs. control (S. cerevisiae JAY 238; S. cerevisiae JAY 238): −19* %
- EtOH yield (S. cerevisiae JAY 238; S. cerevisiae JAY 238): 0.472 ± 0.017 g/g
- Glycerol yield (S. cerevisiae JAY 238; S. cerevisiae JAY 238): 0.041 ± 0.002 g/g
- Glycerol yield % change vs. control (S. cerevisiae JAY 238; S. cerevisiae JAY 238): −0.2%
- DCW (S. cerevisiae JAY 238; S. cerevisiae JAY 238, YPD): 2.00 mg
- DCW Δ vs. ref (S. cerevisiae JAY 238; S. cerevisiae JAY 238, YPD): 78.4%
- OD600 Δ vs. ref (S. cerevisiae JAY 238; S. cerevisiae JAY 238, YPD): 65.9%
- Biomass Yield (S. cerevisiae JAY 238; [2]): 0.059 + 0.000 g/g
- Biomass yield Δ vs. ref (S. cerevisiae JAY 238; [2]): −18.9%
- Ethanol yield (S. cerevisiae JAY 238; [2]): 0.472 ± 0.017 g/g
- Ethanol yield Δ vs. ref (S. cerevisiae JAY 238; [2]): 9.3%
- Glycerol yield (S. cerevisiae JAY 238; [2]): 0.041 ± 0.002 g/g
- Glycerol yield Δ vs. ref (S. cerevisiae JAY 238; [2]): −0.22%
- Biomass Yield (S. cerevisiae JAY 240; S. cerevisiae JAY 240): 0.060 ± 0.000 g/g
- Biomass yield % change vs. control (S. cerevisiae JAY 240; S. cerevisiae JAY 240): −19* %
- EtOH yield (S. cerevisiae JAY 240; S. cerevisiae JAY 240): 0.448 ± 0.018 g/g
- EtOH yield % change vs. control (S. cerevisiae JAY 240; S. cerevisiae JAY 240): +8.2* %
- Glycerol yield (S. cerevisiae JAY 240; S. cerevisiae JAY 240): 0.038 ± 0.002 g/g
- Glycerol yield % change vs. control (S. cerevisiae JAY 240; S. cerevisiae JAY 240): +2.2%
- DCW (S. cerevisiae JAY 240; S. cerevisiae JAY 240, YPD): 2.20 mg
- DCW Δ vs. ref (S. cerevisiae JAY 240; S. cerevisiae JAY 240, YPD): 78.6%
- OD600 (S. cerevisiae JAY 240; S. cerevisiae JAY 240, YPD): 1.89
- OD600 Δ vs. ref (S. cerevisiae JAY 240; S. cerevisiae JAY 240, YPD): 72.2%
- Biomass Yield (S. cerevisiae JAY 240; [3]): 0.060 + 0.000 g/g
- Biomass yield Δ vs. ref (S. cerevisiae JAY 240; [3]): −19.1%
- Ethanol yield (S. cerevisiae JAY 240; [3]): 0.448 ± 0.018 g/g
- Ethanol yield Δ vs. ref (S. cerevisiae JAY 240; [3]): 8.2%
- Glycerol yield (S. cerevisiae JAY 240; [3]): 0.038 ± 0.002 g/g
- Glycerol yield Δ vs. ref (S. cerevisiae JAY 240; [3]): 2.20%
- Biomass Yield (S. cerevisiae JAY 241; S. cerevisiae JAY 241): 0.042 ± 0.001 g/g
- Biomass yield % change vs. control (S. cerevisiae JAY 241; S. cerevisiae JAY 241): −28* %
- EtOH yield (S. cerevisiae JAY 241; S. cerevisiae JAY 241): 0.399 ± 0.003 g/g
- Glycerol yield (S. cerevisiae JAY 241; S. cerevisiae JAY 241): 0.037 ± 0.002 g/g
- Glycerol yield % change vs. control (S. cerevisiae JAY 241; S. cerevisiae JAY 241): −31* %
- DCW (S. cerevisiae JAY 241; S. cerevisiae JAY 241, YPD): 2.10 mg
- DCW Δ vs. ref (S. cerevisiae JAY 241; S. cerevisiae JAY 241, YPD): 80.8%
- OD600 (S. cerevisiae JAY 241; S. cerevisiae JAY 241, YPD): 1.45
- OD600 Δ vs. ref (S. cerevisiae JAY 241; S. cerevisiae JAY 241, YPD): 69.9%
- Biomass Yield (S. cerevisiae JAY 241; [4]): 0.042 + 0.001 g/g
- Biomass yield Δ vs. ref (S. cerevisiae JAY 241; [4]): −27.9%
- Ethanol yield (S. cerevisiae JAY 241; [4]): 0.399 ± 0.003 g/g
- Ethanol yield Δ vs. ref (S. cerevisiae JAY 241; [4]): 0.4%
- Glycerol yield (S. cerevisiae JAY 241; [4]): 0.037 ± 0.002 g/g
- Glycerol yield Δ vs. ref (S. cerevisiae JAY 241; [4]): −31.00%
- Cell dry mass concentration, % of the control (S. cerevisiae JAY 270; 0.05%): 85%
- Biomass Yield (S. cerevisiae JAY 270; [5]): 0.088 + 0.001 g/g
- Biomass yield % change vs. control (S. cerevisiae JAY 270; [5]): −11* %
- EtOH yield (S. cerevisiae JAY 270; [5]): 0.40 ± 0.00 g/g
- EtOH yield % change vs. control (S. cerevisiae JAY 270; [5]): 3.7%
- Glycerol yield (S. cerevisiae JAY 270; [5]): 0.031 ± 0.001 g/g
- Glycerol yield % change vs. control (S. cerevisiae JAY 270; [5]): −4.6%
- Biomass yield vs. reference (S. cerevisiae JAY 270; 0.05%, YPD, serum bottles): −10.8%
- Ethanol yield (S. cerevisiae JAY 270; 0.05%, YPD, serum bottles): 0.40 ± 0.00 g/g
- Ethanol yield vs. reference (S. cerevisiae JAY 270; 0.05%, YPD, serum bottles): 3.7%
- Glycerol yield (S. cerevisiae JAY 270; 0.05%, YPD, serum bottles): 0.031 ± 0.001 g/g
- Glycerol yield vs. reference (S. cerevisiae JAY 270; 0.05%, YPD, serum bottles): −4.6%
- OD600 (S. cerevisiae JAY 270; 0.05%, YPD, serum bottles): 3.35
- Cell dry mass concentration, % of the control (S. cerevisiae JAY 270; 0.2%): 71%
- Effect on yeast cell growth (S. cerevisiae JAY 270; 0.2%): reduced yeast cell growth
- Biomass Yield (S. cerevisiae JAY 270; 0.2% (w/v), YPD, serum bottles): 0.064 + 0.002 g/g
- Biomass yield % change vs. control (S. cerevisiae JAY 270; 0.2% (w/v), YPD, serum bottles): −35* %
- EtOH yield (S. cerevisiae JAY 270; 0.2% (w/v), YPD, serum bottles): 0.41 ± 0.01 g/g
- EtOH yield % change vs. control (S. cerevisiae JAY 270; 0.2% (w/v), YPD, serum bottles): 6.2* %
- Glycerol yield (S. cerevisiae JAY 270; 0.2% (w/v), YPD, serum bottles): 0.025 ± 0.001 g/g
- Glycerol yield % change vs. control (S. cerevisiae JAY 270; 0.2% (w/v), YPD, serum bottles): −25* %
- Biomass yield vs. reference (S. cerevisiae JAY 270; 0.2%, YPD, serum bottles): −35.3%
- Effect on ethanol yield (S. cerevisiae JAY 270; 0.2%, YPD, serum bottles): increased the ethanol yield significantly
- Ethanol yield (S. cerevisiae JAY 270; 0.2%, YPD, serum bottles): 0.41 ± 0.01 g/g
- Ethanol yield vs. reference (S. cerevisiae JAY 270; 0.2%, YPD, serum bottles): 6.2%
- Glycerol yield (S. cerevisiae JAY 270; 0.2%, YPD, serum bottles): 0.025 ± 0.001 g/g
- Glycerol yield vs. reference (S. cerevisiae JAY 270; 0.2%, YPD, serum bottles): −25.1%
- OD600 (S. cerevisiae JAY 270; 0.2%, YPD, serum bottles): 2.44
